Data from patent US8623327B2, “Imaging agents for use in magnetic resonance blood flow/perfusion imaging” (Beth Israel Deaconess Medical Center, Inc., priority 2006, dated 2014).
Like-named read-outs stand apart in the source and are kept apart here.

Columns and labels:
[1] = NMR relaxation time (T1, T2) measurement, saturation recovery; type: physicochemical; conditions: for median value of T1: 9.6 T
[2] = cited from earlier work
[3] = cited from earlier work; remark: listed apart in the source
[4] = test system: alcohol dehydrogenase enzyme; conditions: cited from earlier work
[5] = single saturated recovery experiment (FIGS. 2A and 2B)

[2H]C([2H])([2H])[13C](O)(C([2H])([2H])[2H])C([2H])([2H])[2H]
median value of T1 ([1]; at 400 Mhz): 64 ± 20 s | T1 ([1]; at 400 Mhz, measured in water with oxygen present): > 20 s | T1 [1, 5]: 46±4 | T2 [1, 5]: 0.6±0.02

[2H][13C]([2H])([2H])C(O)([13C]([2H])([2H])[2H])[13C]([2H])([2H])[2H]
median value of T1 ([1]; at 400 Mhz): 26 ± 5 s

[3He] [3He]
solubility in blood [2]: not soluble in blood

[Xe] [Xenon]
relaxation time ([3]; in blood): less than 10 seconds | relaxation time ([3]; in tissue): ≥ 2 s

CC(C)(C)O [t-butanol, tert-butyl alcohol]
processing by alcohol dehydrogenase enzyme [4]: not processed
